In US20250304623A1, “PEPTIDES FOR INTRACELLULAR DELIVERY” (UNIVERSIDADE DE SANTIAGO DE COMPOSTELA, priority 2022, published 2025):
*: point of attachment. NHNH2 = NN*

How the values were obtained:
Type in all cases: cell-based
ARPE19 cells = test: RLuc pDNA delivery, robotic library screening, ARPE19
Hela cells = test: RLuc pDNA delivery, robotic library screening, HeLa
Procedure: Cells were seeded in a 96 well plate the day before the experiment at a concentration of 60,000 cell/mL (100 μL/w) in DMEM+10% FBS+1% Gln-Abt. For robotic library screening, the delivery of pDNA encoding for the expression of Renilla luciferase gene (RLuc, pRL-CMV (Promega, #E2261)) in six different cell lines was performed. […] The mixture was shaken for 30 min at room temperature before the addition to the cells. The cell medium was aspirated, and cells were washed twice with PBS. Finally, 50 μL of the complex's solution were added to the cells and incubated for 4 h. After the incubation, the medium was replaced by 100 μL of fresh DMEM supplemented with 10% FBS. 72 hours after transfection the DMEM was removed, cells were washed once with HBSS and 90 μL of HBSS were added to each well. Cells were incubated at 37° C. for 30 minutes. Then basal luminescence levels were read in a plate reader. Immediately, 10 μL of coelenterazine h in HBSS were added to each well (5 μM final concentration) and cells were incubated at 37° C. for 10 minutes. Finally, the total luminescence measurement of the plates was performed. Amphiphile transfection efficiency was compared and normalized to Lipofectamine® 2000 efficiency (value of 1 in Tables 1-5 and 7; bold numbers). All experiments were done in triplicate.
Tables 1-7: RLuc (pDNA) or EGFP (mRNA) expression levels were normalized to Lipofectamine reagents (value=1) and expressed as fold-times signal increase. In the case of siRNA, the siRNA treated cells fluorescence was compared with siMOCK control fluorescence, while Cas9-RNP mediated knockout was measured against the fluorescence of untreated cells. In both siRNA and Cas9-RNP, values are expressed as % fluorescence reduction. Amphiphile concentration was 5 μM in all cases. All experiments were performed in triplicate.
Tables 8-13 show the mean (triplicates) luminescent intensity (RLU) measured after the transfection of RLuc pDNA by different amphiphiles at different concentrations in a variety of cell lines. Background luminescence values, accounted by untransfected control cells, were subtracted for processing.

[1] = test system: ARPE19 cells expressing EGFP; test: Cas9-RNP delivery against EGFP (gene editing, plate reader), ARPE19
Procedure: To generate an EGFP expressing HeLa cell line, HeLa cells were transfected with EGFP pDNA (pEGFP-C1, Clontech) and stable transfectants were selected with 400 μg/mL of G-418 (Millipore). Green clones were selected by epifluorescence microscopy and tested for EGFP expression stability through several passages. […] All other EGFP-expressing cell lines were obtained in a similar way from parent non-EGFP-expressing cell lines.
Cells expressing EGFP were seeded in a 96 well plate the day before the experiment at a concentration of 50,000 cell/mL (100 μL/w) in DMEM+10% FBS+1% Gln-Abt. For robotic library screening, the delivery of Cas9-RNP against EGFP (RNP designed to knock-out the gene encoding for the enhanced green fluorescent protein (EGFP)) was performed. For RNP assembly, 9.2 μL of crRNA and 9.2 μL of tracrRNA were mixed in 211.6 μL of Nuclease-Free Duplex Buffer (IDT), incubated for 5 min at 95° C. and slowly cooled at rt (see I. Lostalé-Seijo, et al. Peptide/Cas9 nanostructures for ribonucleoprotein cell membrane transport and gene edition, Chem. Sci., 2017). Cas9 protein was dissolved in DMEM at a final concentration of 4 μM and equal volumes of the RNA complex and Cas9 were mixed and incubated for 5 min at rt. 75 μL of the corresponding amphiphile concentrations were added to 5 μL of RNP at 2 μM. The mixture was shaken for 30 min at room temperature before the addition to the cells. The cell medium was aspirated, and cells were washed twice with PBS. Cells were covered with 30 μL of DMEM and 20 μL of the RNP/amphiphile complexes were added to the cells (final peptide concentrations=2.5, 5 and 10 μM; final Cas9-RNP concentration=50 nM) and incubated for 4 h. After the incubation, the medium was replaced by 100 μL of fresh DMEM supplemented with 10% FBS. The total EGFP fluorescence was quantified after 72 h in a plate reader (FIG. 2, Table 1 (right) and Table 6). All experiments were done in triplicate. […]
Tables 26-31 show the mean (triplicates) percentage of gene editing, accounted by GFP fluorescence intensity decrease (% of reduction), measured after the transfection of Cas9-RNP by different amphiphiles at different concentrations in a variety of cell lines. Background values, accounted by untreated control cells, were subtracted for processing.

Row | Substance | mean luminescent intensity (RLuc pDNA) (ARPE19 cells; Myristoleyl, 5 μM) [RLU] | mean luminescent intensity (RLuc pDNA) (ARPE19 cells; Myristoleyl, 10 μM) [RLU] | mean luminescent intensity (RLuc pDNA) (ARPE19 cells; Myristoleyl, 15 μM) [RLU] | mean luminescent intensity (RLuc pDNA) (ARPE19 cells; Palmitoleyl, 5 μM) [RLU] | mean luminescent intensity (RLuc pDNA) (ARPE19 cells; Petroselinyl, 5 μM) [RLU] | mean luminescent intensity (RLuc pDNA) (Hela cells; Hela, Myristoleyl, 5 μM) [RLU] | mean luminescent intensity (RLuc pDNA) (Hela cells; Hela, Myristoleyl, 10 μM) [RLU] | mean luminescent intensity (RLuc pDNA) (Hela cells; Hela, Myristoleyl, 15 μM) [RLU] | mean luminescent intensity (RLuc pDNA) (Hela cells; Hela, Palmitoleyl, 5 μM) [RLU] | mean luminescent intensity (RLuc pDNA) (Hela cells; Hela, Palmitoleyl, 10 μM) [RLU] | mean luminescent intensity (RLuc pDNA) (Hela cells; Hela, Petroselinyl, 5 μM) [RLU] | percentage of gene editing, GFP fluorescence intensity decrease (% of reduction) ([1]; Oleyl, 10 μM) [%] | percentage of gene editing, GFP fluorescence intensity decrease (% of reduction) ([1]; Palmitoleyl, 10 μM) [%] | percentage of gene editing, GFP fluorescence intensity decrease (% of reduction) ([1]; Palmitoleyl, 15 μM) [%] | percentage of gene editing, GFP fluorescence intensity decrease (% of reduction) ([1]; Petroselinyl, 15 μM) [%] | further results
1 | Ac-RHLK*RLK*RRLK*RL-NH2 (Ac-RHLKRLKRRLKRL-NH2; not fully specified (residues 4, 7, 11); printed as Ac-RHLK*RLK*RRLK*RL-NH2; also: linker on K* not given here) [13(Arg-His)] | 17 | −31 | −11 | 67443 | 44329 | −195 | −333 | −332 | 5484 | 921 | 8590 | −6 | −12 | 20 | 15 | mean luminescent intensity (RLuc pDNA) (ARPE19 cells; Dodecanal, 5 μM): 69520 RLU; mean luminescent intensity (RLuc pDNA) (ARPE19 cells; Dodecanal, 10 μM): 2762 RLU; mean luminescent intensity (RLuc pDNA) (ARPE19 cells; Oleyl, 5 μM): 8369 RLU; mean luminescent intensity (RLuc pDNA) (ARPE19 cells; Oleyl, 10 μM): 2379 RLU; mean luminescent intensity (RLuc pDNA) (ARPE19 cells; Oleyl, 15 μM): 716 RLU; mean luminescent intensity (RLuc pDNA) (ARPE19 cells; Palmitoleyl, 15 μM): 670 RLU; mean luminescent intensity (RLuc pDNA) (ARPE19 cells; Petroselinyl, 10 μM): 2986 RLU; mean luminescent intensity (RLuc pDNA) (ARPE19 cells; Petroselinyl, 15 μM): 1967 RLU; percentage of gene editing, GFP fluorescence intensity decrease (% of reduction) ([1]; Dodecanal, 5 μM): 25%; percentage of gene editing, GFP fluorescence intensity decrease (% of reduction) ([1]; Dodecanal, 15 μM): 21%; percentage of gene editing, GFP fluorescence intensity decrease (% of reduction) ([1]; Myristoleyl, 10 μM): 15%; percentage of gene editing, GFP fluorescence intensity decrease (% of reduction) ([1]; Myristoleyl, 15 μM): 9%; percentage of gene editing, GFP fluorescence intensity decrease (% of reduction) ([1]; Oleyl, 5 μM): 14%; percentage of gene editing, GFP fluorescence intensity decrease (% of reduction) ([1]; Palmitoleyl, 5 μM): 25%
2 | Ac-RRHK*RLK*RRLK*RL-NH2 (Ac-RRHK(NHNH2)RLK(NHNH2)RRLK(NHNH2)RL-NH2; not fully specified; printed as Ac-RRHK*RLK*RRLK*RL-NH2; also: K*4,K*7,K*11: native or modified lysine (ε-amide to a linker)) [13(Leu-His)] | 6946 | 72 | 102 | 8615 | 4661 | 7216 | 985 | −373 | 7854 | 3026 | 5527 | −6 | −13 | 6 | 22 | mean luminescent intensity (RLuc pDNA) (Hela cells; HeLa, Petroselinyl, 10 μM): 2037 RLU
